Test results taken from patent publication US4153729A, “Therapeutically useful cysteinol and homocysteinol derivatives” (Recherches Pharmaceutiques et Scientifiques, priority 1977, dated 1979).
Counter-ions that a name gives are not always drawn.

Legend:
[1] = Solubility of the isolated product; format: physicochemical; conditions: in words
[2] = Oral LD 50 determined according to the method of Karber and Behrens on mice; conditions: mouse, in vivo, female mice 24 to 26 g, read-out: LD 50 per os
Protocol: The products of the invention are hardly toxic.
The oral LD 50 (see the table below) was determined according to the method of Karber and Behrens (Arch. Exp. Pathol. Pharm. 177, 1935, page 379) on mice EVIC CEBA .female. Swiss EOPS NMRI Han of 24 to 26 g weight.

rats = assay: Hypolipemic activity: hyperlipidemia experimentally induced by Triton in rats; format: in vivo; set-up: key: NS: non-significant result; conditions: 18 h after i.v. Triton; for Hypolipemic activity, percentages of diminution: Cholesterol / Hypolipemic activity, percentages of diminution: Triglycerides / Hypolipemic activity, percentages of diminution: total lipids / Hypolipemic activity, percentages of diminution: β-lipoprotein: single p.o. dose mg/kg: clofibrate 225, Ex 1, 2: 500, Ex 3: 270, Ex 4: 127, Ex 5: 175, Ex 6: 310, Ex 12: 250, Ex 13: 140, Ex 14: 95; for Hypolipemic activity, percentages of diminution: optical serum density: serum at 691 nanometres, single p.o. dose mg/kg: Ex 1, 2: 500, Ex 3: 270, Ex 4: 127, Ex 5: 175, Ex 6: 310, Ex 12: 250, Ex 13: 140, Ex 14: 95
Protocol: The technique used to show these properties has been described by M. Friedman and S. E. Byers in : J. Exptl. Med. 97, 117, 1953 and likewise by S. Garattini and colleagues in Arzneim. Forsch. 9, 206, 1959.
The rats received intravenously 0.3 ml per 100 grams of body weight of a solution of Triton 13 39 at 10%. The products to be tested are administered simultaneously orally at a dose corresponding to a tenth of their LD 50, determined orally in mice, without the dose used exceeding 500 mg/kg.
Eighteen hours after the injection of Triton the animals are sacrificed by section of the carotid and the blood is collected to determined the lipid parameters : cholesterol (auto-analyser Technicon AA II Lieberman Burchard), beta- lipoproteins, (Burnstein), total lipids (Chabrol and Charonnat), triglycerides (Boehringer enzymatic).
The optical density of the serum at 691 nanometres is measured in each case. Each product was tested on ten animals. The statistic calculations were carried out on the averages affected by their divergence from the average using the Student test.
The reference compound used is clofibrate.

Structure (SMILES) | solubility [1] | LD50 [2] | Hypolipemic activity, percentages of diminution: Cholesterol (rats) | Hypolipemic activity, percentages of diminution: Triglycerides (rats) | Hypolipemic activity, percentages of diminution: total lipids (rats) | Hypolipemic activity, percentages of diminution: optical serum density (rats) | Hypolipemic activity, percentages of diminution: β-lipoprotein (rats)
NC(CO)CSSCC(N)CO (centres unmarked) [Example 6, 2,7-diamino-4,5-dithia-1,8-octanediol] | soluble in water, methanol, ethanol | 3100 mg/kg | – | – | – | – | –
NC(CO)CCSCCCCCCCCCCSCCC(N)CO (centres unmarked) [Example 14, 2,19-diamino-5,16-dithia-1,20-eicosanediol] | soluble in water and alcohols | 950 mg/kg | NS | NS | NS | NS | –
NC(CO)CCSCCSCCC(N)CO (centres unmarked) [Example 9, neutral oxalate of 2,11-diamino-5,8-dithia-1,12 dodecanediol] | soluble in water and alcohols | – | – | – | – | – | –
NC(CO)CSCCCCCCCCCCSCC(N)CO (centres unmarked) [Example 5, 2,17-diamino-4,15-dithia-1,18-octadecanediol] | – | 1750 mg/kg | – | – | NS | – | NS
NC(CO)CSCSCC(N)CO (centres unmarked) [Example 1, 2,8-diamino-4,6-dithia-1,9-nonanediol] | soluble in the cold in water, alcohol, ether | > 5000 mg/kg | – | NS | NS | NS | NS
NC(CO)CSCCCCCCSCC(N)CO (centres unmarked) [Example 3, 2,13-diamino-4,11-dithia-1,14-tetradecanediol] | soluble in water, alcohols, ether | 2700 mg/kg | – | – | – | – | –
NC(CO)CCSCCCCSCCC(N)CO (centres unmarked) [Example 10, mandelate of 2,13-diamino-5,10-dithia-1,14-tetradecanediol] | soluble in water, alcohols and dimethylformamide | – | – | – | – | – | –
NC(CO)CCSCCCCCSCCC(N)CO (centres unmarked) [Example 11, mandelate of 2,14-diamino-5,11-dithia-1,15-pentadecanediol] | Soluble in water, alcohols, DMF | – | – | – | – | – | –
NC(CO)CCSCSCCC(N)CO (centres unmarked) [Example 8, neutral oxalate of 2,10-diamino-5,7-dithia-1,11 undecanediol] | Soluble in water and alcohols | – | – | – | – | – | –
CCOC(=O)C(C)(C)Oc1ccc(Cl)cc1 [Clofibrate, reference compound] | – | 2300 mg/kg | – | – | – | – | –
NC(CO)CCSCCCCCCSCCC(N)CO (centres unmarked) [Example 12, 2,15-diamino-5,12-dithia-1,16-hexadecanediol] | soluble in water and alcohols | 2500 mg/kg | NS | NS | NS | NS | –
NC(CO)CSCCCCCCCCSCC(N)CO (centres unmarked) [Example 4, 2,15-diamino-4,13-dithia-1,16-hexadecanediol] | soluble in water, alcohols, ether | 1280 mg/kg | – | – | NS | – | –
NC(CO)CSCCCCSCC(N)CO (centres unmarked) [Example 2, 2,11-diamino-4,9-dithia-1,12-dodecanediol] | soluble in water, alcohols, ether | 5000 mg/kg | NS | – | NS | NS | NS
NC(CO)CCSCCCCCCCCSCCC(N)CO (centres unmarked) [Example 13, 2,17-diamino-5,14-dithia-1,18-octadecanediol] | soluble in water and alcohols | 1400 mg/kg | – | – | – | – | –
